From ChEMBL document CHEMBL1201862, “PubChem BioAssay data set” (2004)
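96-well plates; 48 h exposure; 5 concentrations. Endpoints by linear interpolation between flanking doses. Not reached: highest tested concentration assigned. Here, GI50 denotes the concentration required for 50% inhibition of growth.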 Activity calls are given as the source filed them. No stated cut-off is given here; in the data, active = GI50 up to about 1.1 µM and inactive = higher.

Legend:
Test in all cases: DTP human tumour cell line panel, 48 h
U-251 = tested on: U-251
SF-268 = tested on: SF-268
OVCAR-5 = tested on: OVCAR-5
HOP-62 = tested on: HOP-62
LOX IMVI = tested on: LOX IMVI
OVCAR-3 = tested on: OVCAR-3
SW-620 = tested on: SW-620
HCT-15 = tested on: HCT-15
MDA-MB-435 = tested on: MDA-MB-435
IGROV-1 = tested on: IGROV-1
T47D = tested on: T47D
CCRF-CEM = tested on: CCRF-CEM
SR = tested on: SR
HL-60 = tested on: HL-60
CAKI-1 = tested on: CAKI-1
M14 = tested on: M14
BT-549 = tested on: BT-549
UO-31 = tested on: UO-31
EKVX = tested on: EKVX
NCI/ADR-RES = tested on: NCI/ADR-RES

| Structure (SMILES) | GI50 (U-251) | GI50 (SF-268) | GI50 (OVCAR-5) | GI50 (HOP-62) | GI50 (LOX IMVI) | GI50 (OVCAR-3) | GI50 (SW-620) | GI50 (HCT-15) [µM] | GI50 (MDA-MB-435) | GI50 (IGROV-1) | GI50 (T47D) | GI50 (CCRF-CEM) | GI50 (SR) | GI50 (HL-60) | GI50 (CAKI-1) | GI50 (M14) | GI50 (BT-549) | GI50 (UO-31) | GI50 (EKVX) | GI50 (NCI/ADR-RES) |
| --- | --- | --- | --- | --- | --- | --- | --- | --- | --- | --- | --- | --- | --- | --- | --- | --- | --- | --- | --- | --- |
| COc1ccc2c(c1)NC1(CCN(CCCC(=O)c3ccc(F)cc3)CC1)N=N2 | 19.2 µM (inactive) | 41.8 µM (inactive) | 23.5 µM (inactive) | 24.7 µM (inactive) | 18.7 µM (inactive) | 23.3 µM (inactive) | 23.8 µM (inactive) | 20.8 | 15.8 µM (inactive) | 21 µM (inactive) | 22.2 µM (inactive) | 20 µM (inactive) | 15.7 µM (inactive) | 15.2 µM (inactive) | 29.6 µM (inactive) | 13.7 µM (inactive) | 26.4 µM (inactive) | 18 µM (inactive) | 32.2 µM (inactive) | 24.4 µM (inactive) |
| CC1(CCCC2(C)CCNC2=O)OCCO1 (stereo not given) | > 10 µM (inactive) | > 10 µM (inactive) | > 10 µM (inactive) | > 10 µM (inactive) | > 10 µM (inactive) | > 10 µM (inactive) | > 10 µM (inactive) | > 10 | > 10 µM (inactive) | > 10 µM (inactive) | > 10 µM (inactive) | > 10 µM (inactive) | > 10 µM (inactive) | > 10 µM (inactive) | > 10 µM (inactive) | > 10 µM (inactive) | > 10 µM (inactive) | > 10 µM (inactive) | > 10 µM (inactive) | > 10 µM (inactive) |
| N#CC1(C2SCC[S+]2[O-])C2=C(C(=O)c3ccccc3C2=O)N2CCCC21 (stereo not given) | 3.4 µM (inactive) | 3.01 µM (inactive) | 3.78 µM (inactive) | 5.28 µM (inactive) | 0.986 µM (active) | 0.583 µM (active) | 2.13 µM (inactive) | 2.21 | 0.497 µM (active) | 1.75 µM (inactive) | 3.3 µM (inactive) | 2.94 µM (inactive) | 0.935 µM (active) | 1.55 µM (inactive) | 4.42 µM (inactive) | 1.17 µM (inactive) | 2.29 µM (inactive) | 4.68 µM (inactive) | 4.8 µM (inactive) | 3.12 µM (inactive) |
| CN(C)CCn1c(=O)c2ccc(NCCCN(C)CCCNc3ccc4c(=O)n(CCN(C)C)c(=O)n5c6ccc([N+](=O)[O-])cc6c(=O)c3c45)c3c(=O)c4cc([N+](=O)[O-])ccc4n(c1=O)c23 | < 0.01 µM (active) | 0.0163 µM (active) | < 0.037 µM (active) | < 0.01 µM (active) | < 0.01 µM (active) | < 0.033 µM (active) | < 0.0112 µM (active) | < 0.015 | < 0.0173 µM (active) | < 0.01 µM (active) | 0.0968 µM (active) | < 0.01 µM (active) | < 0.01 µM (active) | < 0.027 µM (active) | < 0.033 µM (active) | 0.057 µM (active) | 0.0376 µM (active) | 0.0129 µM (active) | 0.0411 µM (active) | 0.0802 µM (active) |
| Cn1c(=O)c2c(nc3n(Cc4ccccc4)c(=O)c(NCCBr)cn23)n(C)c1=O | 30.4 µM (inactive) | 25.8 µM (inactive) | 28.4 µM (inactive) | 18.8 µM (inactive) | 28.4 µM (inactive) | 19.1 µM (inactive) | 90.6 µM (inactive) | 34.8 | 49.5 µM (inactive) | 33 µM (inactive) | 21.1 µM (inactive) | 45.5 µM (inactive) | 6.43 µM (inactive) | 38.8 µM (inactive) | 18.5 µM (inactive) | 33.1 µM (inactive) | 28.4 µM (inactive) | 13 µM (inactive) | 18.5 µM (inactive) | 21.8 µM (inactive) |
